Test results as given in ChEMBL document CHEMBL3885861, “Open TG-GATES”.

Species: Rattus norvegicus
Test: Open TG-GATES - Regimen: Daily Repeat
Assay type: toxicity, organism-based, Sprague-Dawley
Parameters: regimen Daily Repeat, gender Male, age 6 weeks
Settings: in vivo, po, route gavage; for Ht / Lym / MCHC / Mono / Neu / Plat / RBC / Ret / WBC / Bas / Eos / Fbg / Hb / PT / MCV: tissue Blood; for KIDNEY_L / KIDNEY_R / KIDNEY_TOTAL: tissue Kidney; for ALP / ALT / AST / BUN / CRE / Ca / DBIL / IP / K / Na / PL / RALB / TBIL / TC / TG / TP / gamma-GTP / LDH: tissue Plasma; for LIVER: tissue Liver
[1] = 120 mg/kg, 72 h, dose level Middle, time 3 day
[2] = 120 mg/kg, […], dose level Middle, time 7 day
[3] = 120 mg/kg, […], dose level Middle, time 14 day
[4] = 120 mg/kg, […], dose level Middle, time 28 day
[5] = 400 mg/kg, 72 h, dose level High, time 3 day
[6] = 400 mg/kg, […], dose level High, time 7 day
[7] = 400 mg/kg, […], dose level High, time 14 day
[8] = 400 mg/kg, […], dose level High, time 28 day

CCC(C)(C)C(=O)O[C@H]1C[C@@H](C)C=C2C=C[C@H](C)[C@H](CC[C@@H]3C[C@@H](O)CC(=O)O3)[C@H]21 [SIMVASTATIN]
Ht [1]: 41%
Lym [1]: 80.2%
MCHC [1]: 33.2%
Mono [1]: 8.4%
Neu [1]: 10.2%
Plat [1]: 119.9 x10_4/uL
RBC [1]: 644.2 x10_4/ul
Ret [1]: 5.5%
WBC [1]: 81 x10_2/uL
KIDNEY_L [1]: 1 g
KIDNEY_R [1]: 1 g
KIDNEY_TOTAL [1]: 2 g
ALP [1]: 885.4 IU/L
ALT [1]: 42 IU/L
AST [1]: 62.2 IU/L
BUN [1]: 16.4 mg/dL
CRE [1]: 0.6 mg/dL
Ca [1]: 10.8 mg/dL
DBIL [1]: 0.012 mg/dL
IP [1]: 7.3 mg/dL
K [1]: 4.4 meq/L
Na [1]: 139.6 meq/L
PL [1]: 131.2 mg/dL
RALB [1]: 3.9 g/dL
TBIL [1]: 0.3 mg/dL
TC [1]: 81.6 mg/dL
TG [1]: 48.2 mg/dL
TP [1]: 5.6 g/dL
gamma-GTP [1]: 1.4 IU/L
TERMINAL_BW [2]: 245.2 g
TERMINAL_BW [3]: 292.4 g
TERMINAL_BW [4]: 375.8 g
Bas [2]: 0%
Eos [2]: 1%
Fbg [2]: 222.8 mg/dL
Hb [2]: 13.3 g/dL
Ht [2]: 40%
Lym [2]: 83.8%
MCHC [2]: 33.1%
Mono [2]: 7.4%
Neu [2]: 8.4%
PT [2]: 11 s
Plat [2]: 123.4 x10_4/uL
RBC [2]: 630.6 x10_4/ul
Ret [2]: 3.3%
WBC [2]: 106.6 x10_2/uL
Bas [3]: 0%
Eos [3]: 0.8%
Fbg [3]: 223.6 mg/dL
Hb [3]: 14.2 g/dL
Ht [3]: 42.5%
Lym [3]: 80%
MCHC [3]: 33.3%
Mono [3]: 5.2%
Neu [3]: 14.4%
Plat [3]: 121.2 x10_4/uL
RBC [3]: 698 x10_4/ul
Ret [3]: 6%
Bas [4]: 0%
Eos [4]: 1%
Fbg [4]: 238.8 mg/dL
Hb [4]: 15 g/dL
Ht [4]: 45.4%
Lym [4]: 83.4%
MCHC [4]: 33.1%
MCV [4]: 58.3 fL
Mono [4]: 5.2%
PT [4]: 11.8 s
Plat [4]: 116.8 x10_4/uL
RBC [4]: 778.6 x10_4/ul
Ret [4]: 2.4%
WBC [4]: 114.5 x10_2/uL
KIDNEY_L [2]: 1.1 g
KIDNEY_R [2]: 1.1 g
KIDNEY_TOTAL [2]: 2.2 g
KIDNEY_L [3]: 1.2 g
KIDNEY_R [3]: 1.2 g
KIDNEY_TOTAL [3]: 2.4 g
KIDNEY_L [4]: 1.4 g
KIDNEY_R [4]: 1.4 g
KIDNEY_TOTAL [4]: 2.7 g
LIVER [2]: 13.1 g
LIVER [3]: 14.5 g
LIVER [4]: 17.7 g
ALP [2]: 848 IU/L
ALT [2]: 38.2 IU/L
AST [2]: 67.4 IU/L
BUN [2]: 21.4 mg/dL
CRE [2]: 0.6 mg/dL
DBIL [2]: 0.012 mg/dL
IP [2]: 7.1 mg/dL
K [2]: 4.8 meq/L
LDH [2]: 124.8 IU/L
Na [2]: 141.2 meq/L
PL [2]: 140.8 mg/dL
RALB [2]: 3.9 g/dL
TBIL [2]: 0.3 mg/dL
TC [2]: 74.6 mg/dL
TG [2]: 78.8 mg/dL
TP [2]: 5.8 g/dL
gamma-GTP [2]: 0.8 IU/L
ALP [3]: 763.4 IU/L
ALT [3]: 37.6 IU/L
AST [3]: 67 IU/L
BUN [3]: 20.6 mg/dL
CRE [3]: 0.6 mg/dL
Ca [3]: 11 mg/dL
DBIL [3]: 0.01 mg/dL
IP [3]: 7.2 mg/dL
K [3]: 4.3 meq/L
LDH [3]: 110.6 IU/L
Na [3]: 140.4 meq/L
PL [3]: 150.4 mg/dL
RALB [3]: 4 g/dL
TBIL [3]: 0.4 mg/dL
TC [3]: 76.2 mg/dL
TG [3]: 119.6 mg/dL
TP [3]: 5.9 g/dL
gamma-GTP [3]: 1.2 IU/L
ALP [4]: 716 IU/L
ALT [4]: 36.6 IU/L
AST [4]: 59.4 IU/L
BUN [4]: 19.8 mg/dL
CRE [4]: 0.7 mg/dL
Ca [4]: 10.9 mg/dL
DBIL [4]: 0.016 mg/dL
IP [4]: 6.4 mg/dL
K [4]: 4.2 meq/L
LDH [4]: 107.8 IU/L
Na [4]: 142.6 meq/L
PL [4]: 139.6 mg/dL
RALB [4]: 4 g/dL
TBIL [4]: 0.3 mg/dL
TC [4]: 71.4 mg/dL
TG [4]: 128.2 mg/dL
TP [4]: 6.2 g/dL
gamma-GTP [4]: 2.2 IU/L
TERMINAL_BW [5]: 181.9 g
Bas [5]: 0%
Eos [5]: 1%
Fbg [5]: 202.2 mg/dL
Hb [5]: 15.1 g/dL
Ht [5]: 45.5%
Lym [5]: 72.4%
MCHC [5]: 33.3%
Mono [5]: 5.8%
Neu [5]: 20.6%
PT [5]: 15.6 s
Plat [5]: 126.8 x10_4/uL
RBC [5]: 699.4 x10_4/ul
Ret [5]: 2.6%
WBC [5]: 96.5 x10_2/uL
KIDNEY_L [5]: 0.9 g
KIDNEY_R [5]: 0.9 g
KIDNEY_TOTAL [5]: 1.8 g
LIVER [5]: 9.1 g
ALP [5]: 613.8 IU/L
ALT [5]: 173.4 IU/L
AST [5]: 134 IU/L
BUN [5]: 15 mg/dL
CRE [5]: 0.5 mg/dL
Ca [5]: 10 mg/dL
DBIL [5]: 0.012 mg/dL
IP [5]: 6.9 mg/dL
K [5]: 5 meq/L
LDH [5]: 155.8 IU/L
Na [5]: 137.2 meq/L
PL [5]: 82.2 mg/dL
RALB [5]: 4 g/dL
TBIL [5]: 0.4 mg/dL
TC [5]: 51.4 mg/dL
TG [5]: 17.6 mg/dL
TP [5]: 5.3 g/dL
gamma-GTP [5]: 1.6 IU/L
TERMINAL_BW [6]: 208 g
TERMINAL_BW [7]: 268.6 g
TERMINAL_BW [8]: 365.2 g
Bas [6]: 0%
Eos [6]: 1%
Fbg [6]: 212.2 mg/dL
Hb [6]: 13.7 g/dL
Ht [6]: 41.7%
Lym [6]: 78%
MCHC [6]: 32.8%
Mono [6]: 7.5%
Neu [6]: 13.5%
PT [6]: 12.8 s
Plat [6]: 138.7 x10_4/uL
RBC [6]: 658.2 x10_4/ul
Ret [6]: 3.4%
WBC [6]: 98.8 x10_2/uL
Bas [7]: 0%
Eos [7]: 1%
Fbg [7]: 255.2 mg/dL
Hb [7]: 13.5 g/dL
Ht [7]: 40.7%
Lym [7]: 72.8%
MCHC [7]: 33.1%
Mono [7]: 9.5%
Neu [7]: 17.2%
PT [7]: 12.1 s
Plat [7]: 148 x10_4/uL
RBC [7]: 673.5 x10_4/ul
Ret [7]: 8.1%
WBC [7]: 114.1 x10_2/uL
Bas [8]: 0%
Eos [8]: 1%
Fbg [8]: 234.2 mg/dL
Hb [8]: 14.6 g/dL
Ht [8]: 44%
Lym [8]: 80.2%
MCHC [8]: 33.1%
MCV [8]: 58.5 fL
Mono [8]: 5.6%
Neu [8]: 13.8%
PT [8]: 13 s
Plat [8]: 130.1 x10_4/uL
RBC [8]: 753.2 x10_4/ul
Ret [8]: 3%
WBC [8]: 117.8 x10_2/uL
KIDNEY_L [6]: 1 g
KIDNEY_R [6]: 1 g
KIDNEY_TOTAL [6]: 1.9 g
KIDNEY_L [7]: 1.2 g
KIDNEY_R [7]: 1.2 g
KIDNEY_TOTAL [7]: 2.4 g
KIDNEY_L [8]: 1.3 g
KIDNEY_R [8]: 1.4 g
KIDNEY_TOTAL [8]: 2.7 g
LIVER [6]: 12.1 g
LIVER [7]: 16 g
LIVER [8]: 20.6 g
ALP [6]: 693.8 IU/L
ALT [6]: 96.2 IU/L
AST [6]: 100.2 IU/L
BUN [6]: 21 mg/dL
CRE [6]: 0.6 mg/dL
Ca [6]: 11.3 mg/dL
DBIL [6]: 0.025 mg/dL
IP [6]: 6.2 mg/dL
K [6]: 4.7 meq/L
LDH [6]: 136 IU/L
Na [6]: 141.2 meq/L
PL [6]: 116.8 mg/dL
RALB [6]: 4.1 g/dL
TBIL [6]: 0.3 mg/dL
TC [6]: 67.5 mg/dL
TG [6]: 36.8 mg/dL
TP [6]: 5.9 g/dL
gamma-GTP [6]: 1.2 IU/L
ALP [7]: 717.5 IU/L
ALT [7]: 100.5 IU/L
AST [7]: 275.8 IU/L
BUN [7]: 19.2 mg/dL
CRE [7]: 0.6 mg/dL
Ca [7]: 10.8 mg/dL
DBIL [7]: 0.0075 mg/dL
IP [7]: 6.7 mg/dL
K [7]: 4.2 meq/L
LDH [7]: 121.2 IU/L
Na [7]: 140 meq/L
PL [7]: 115 mg/dL
RALB [7]: 3.7 g/dL
TBIL [7]: 0.3 mg/dL
TC [7]: 66.5 mg/dL
TG [7]: 60.5 mg/dL
TP [7]: 5.5 g/dL
gamma-GTP [7]: 2.2 IU/L
ALP [8]: 691.8 IU/L
ALT [8]: 55 IU/L
AST [8]: 71.6 IU/L
BUN [8]: 23.6 mg/dL
CRE [8]: 0.6 mg/dL
Ca [8]: 10.9 mg/dL
DBIL [8]: 0.018 mg/dL
IP [8]: 5.6 mg/dL
K [8]: 4.4 meq/L
LDH [8]: 132 IU/L
Na [8]: 142.6 meq/L
PL [8]: 116.2 mg/dL
RALB [8]: 4.1 g/dL
TBIL [8]: 0.3 mg/dL
TC [8]: 57.6 mg/dL
TG [8]: 85.4 mg/dL
TP [8]: 6.1 g/dL
gamma-GTP [8]: 1.2 IU/L
